Patent publication US7897582B2, “Oligonucleotide compositions and methods for the modulation of the expression of B7 protein” (Isis Pharmaceuticals, Inc., priority 2003, dated 2011)
Strand notation (5' to 3'): a small letter for the sugar, then the base; units joined by * are phosphorothioate-linked, units joined directly phosphodiester-linked; [ ] holds rarer units or linkages, { } end groups; capitals alone tell only the bases. e = 2'-O-(2-methoxyethyl) (MOE); [5mC] = 5-methylcytosine; d = 2'-deoxy (DNA)

Tests used:
Human B7-1 mRNA = Human B7-1 mRNA expression in electroporated, LPS-induced THP-1 cells; type: cell-based; settings: THP-1 cells electroporated at 10 micromolar oligonucleotide, LPS 1 μg/ml 16 hours
From the text: (§1) The human promonocytic leukaemia cell line, THP-1 (American Type Culture Collection, Manassas, Va.) was maintained in RPMI 1640 growth media supplemented with 10% fetal calf serum (FCS; Life Technologies, Rockville, Md.). A total of 1×10^7 cells were electroporated at an oligonucleotide concentration of 10 micromolar in 2 mm cuvettes, using an Electrocell Manipulator 600 instrument (Biotechnologies and Experimental Research, Inc.) employing 200 V, 1000 μF. Electroporated cells were then transferred to petri dishes and allowed to recover for 16 hrs. Cells were then induced with LPS at a final concentration of 1 μg/ml for 16 hours. RNA was isolated and processed as described in previous examples.

Human B7-2 mRNA = Human B7-2 mRNA expression in electroporated THP-1 cells induced with LPS and dibutyryl cAMP; type: cell-based; settings: THP-1 cells electroporated at 10 micromolar oligonucleotide, LPS and dibutyryl cAMP (500 μM) 16 hours
From the text: as §1, with “hrs” for “hrs.”, “and dibutyryl cAMP (500 μM)” for “at a final concentration of 1 μg/ml”

Substance	% mRNA EXPRESSION (Human B7-1 mRNA)	% mRNA INHIBITION (Human B7-1 mRNA)	% mRNA EXPRESSION (Human B7-2 mRNA)	% mRNA INHIBITION (Human B7-2 mRNA)
113505 (antisense e[5mC]*eT*eT*e[5mC]*eA*dG*d[5mC]*d[5mC]*dA*dG*dG*dT*dG*dT*dT*e[5mC]*e[5mC]*e[5mC]*eG*e[5mC]) [compound 113505]	40%	60%		
113510 (antisense eA*eG*eG*eA*eA*dA*dA*dT*dG*d[5mC]*dT*d[5mC]*dT*dT*dG*e[5mC]*eT*eT*eG*eG) [compound 113510]	43%	57%		
113489 (antisense e[5mC]*e[5mC]*e[5mC]*eT*e[5mC]*d[5mC]*dA*dG*dT*dG*dA*dT*dG*dT*dT*eT*eA*e[5mC]*eA*eA) [compound 113489]	122%			
113499 (antisense e[5mC]*eA*eG*e[5mC]*eG*dT*dT*dG*d[5mC]*d[5mC]*dA*d[5mC]*dT*dT*d[5mC]*eT*eT*eT*e[5mC]*eA) [compound 113499]	25%	75%		
113503 (antisense e[5mC]*eG*eG*eT*eT*d[5mC]*dT*dT*dG*dT*dA*d[5mC]*dT*d[5mC]*dG*eG*eG*e[5mC]*e[5mC]*eA) [compound 113503]	65%	35%		
113498 (antisense eG*eA*eA*eA*eG*dA*d[5mC]*d[5mC]*dA*dG*d[5mC]*d[5mC]*dA*dG*d[5mC]*eA*e[5mC]*e[5mC]*eA*eA) [compound 113498]	37%	63%		
113500 (antisense eG*eT*eG*eA*e[5mC]*d[5mC]*dA*d[5mC]*dA*dG*dG*dA*d[5mC]*dA*dG*e[5mC]*eG*eT*eT*eG) [compound 113500]	83%	17%		
113504 (antisense e[5mC]*eG*e[5mC]*eA*eG*dA*dG*d[5mC]*d[5mC]*dA*dG*dG*dA*dT*d[5mC]*eA*e[5mC]*eA*eA*eT) [compound 113504]	46%	54%		
113159 (antisense eA*eG*eT*e[5mC]*eT*d[5mC]*d[5mC]*dT*d[5mC]*dT*dT*dG*dG*d[5mC]*dA*eT*eA*e[5mC]*eG*eG) [compound 113159]			43%	57%
113506 (antisense eT*eA*eA*e[5mC]*eG*dT*d[5mC]*dA*d[5mC]*dT*dT*d[5mC]*dA*dG*d[5mC]*e[5mC]*eA*eG*eG*eT) [compound 113506]	105%			
113513 (antisense eG*eG*eT*e[5mC]*eA*dG*dG*d[5mC]*dA*dG*d[5mC]*dA*dT*dA*dT*e[5mC]*eA*e[5mC]*eA*eA) [compound 113513]	48%	52%		
113156 (antisense e[5mC]*eA*eT*eG*eT*dA*dT*d[5mC]*dA*d[5mC]*dT*dT*dT*dT*dG*eT*e[5mC]*eG*e[5mC]*eA) [compound 113156]			83%	17%
113512 (antisense eT*eA*eA*eG*eG*dT*dA*dA*dT*dG*dG*d[5mC]*d[5mC]*d[5mC]*dA*eG*eG*eA*eT*eG) [compound 113512]	73%	27%		
113517 (antisense eA*eA*eA*eG*eG*dA*dG*dA*dG*dG*dG*dA*dT*dG*d[5mC]*e[5mC]*eA*eG*e[5mC]*e[5mC]) [compound 113517]	201%			
113496 (antisense eG*eA*eT*eG*eG*dT*dG*dA*dT*dG*dT*dT*d[5mC]*d[5mC]*d[5mC]*eT*eG*e[5mC]*e[5mC]*eT) [compound 113496]	71%	29%		
113508 (antisense e[5mC]*eT*eG*eT*eT*dG*dT*dG*dT*dT*dG*dA*dT*dG*dG*e[5mC]*eA*eT*eT*eT) [compound 113508]	117%			
113511 (antisense eT*eG*eG*eG*eA*dG*d[5mC]*dA*dG*dG*dT*dT*dA*dT*d[5mC]*eA*eG*eG*eA*eA) [compound 113511]	48%	52%		
113144 (antisense eA*eG*e[5mC]*e[5mC]*e[5mC]*dT*dT*dG*dT*d[5mC]*d[5mC]*dT*dT*dG*dA*eT*e[5mC]*eT*eG*eA) [compound 113144]			41%	59%
113148 (antisense eA*e[5mC]*e[5mC]*eG*eT*dG*dT*dA*dT*dA*dG*dA*dT*dG*dA*eG*e[5mC]*eA*eG*eG) [compound 113148]			23%	77%
113160 (antisense e[5mC]*e[5mC]*e[5mC]*eA*eT*dA*dA*dG*dT*dG*dT*dG*d[5mC]*dT*d[5mC]*eT*eG*eA*eA*eG) [compound 113160]			09%	91%

Substance	% mRNA EXPRESSION (Human B7-1 mRNA)	% mRNA INHIBITION (Human B7-1 mRNA)	% mRNA EXPRESSION (Human B7-2 mRNA)	% mRNA INHIBITION (Human B7-2 mRNA)
113138 (antisense eG*eA*eA*eT*e[5mC]*dT*dT*d[5mC]*dA*dG*dA*dG*dG*dA*dG*e[5mC]*eA*eG*e[5mC]*eA) [compound 113138]			12%	88%
113132 (antisense eG*e[5mC]*eT*eG*e[5mC]*dT*dT*d[5mC]*dT*dG*d[5mC]*dT*dG*dT*dG*eA*e[5mC]*e[5mC]*eT*eA) [compound 113132]			17%	83%
113494 (antisense e[5mC]*e[5mC]*eT*e[5mC]*e[5mC]*dG*dT*dG*dT*dG*dT*dG*dG*d[5mC]*d[5mC]*e[5mC]*eA*eT*eG*eG) [compound 113494]	77%	23%		
113142 (antisense eG*e[5mC]*eT*e[5mC]*eA*d[5mC]*dT*d[5mC]*dA*dG*dG*d[5mC]*dT*dT*dT*eG*eG*eT*eT*eT) [compound 113142]			35%	65%
113143 (antisense eG*eG*eT*e[5mC]*e[5mC]*dT*dG*d[5mC]*d[5mC]*dA*dA*dA*dA*dT*dA*e[5mC]*eT*eA*e[5mC]*eT) [compound 113143]			118%	
113151 (antisense eT*eG*e[5mC]*eT*e[5mC]*dG*dT*dA*dA*d[5mC]*dA*dT*d[5mC]*dA*dG*eG*eG*eA*eA*eT) [compound 113151]			208%	
113141 (antisense eA*eG*eG*e[5mC]*eT*dT*dT*dG*dG*dT*dT*dT*dT*dG*dA*eG*eA*eG*eT*eT) [compound 113141]			126%	
113155 (antisense eG*eG*eG*e[5mC]*eT*dT*d[5mC]*dA*dT*d[5mC]*dA*dG*dA*dT*d[5mC]*eT*eT*eT*e[5mC]*eA) [compound 113155]			13%	87%
113146 (antisense eA*eA*eT*e[5mC]*eA*dT*dT*d[5mC]*d[5mC]*dT*dG*dT*dG*dG*dG*e[5mC]*eT*eT*eT*eT) [compound 113146]			32%	68%
113147 (antisense e[5mC]*e[5mC]*eG*eT*eG*dT*dA*dT*dA*dG*dA*dT*dG*dA*dG*e[5mC]*eA*eG*eG*eT) [compound 113147]			35%	65%
113137 (antisense e[5mC]*eT*eT*e[5mC]*eA*dG*dA*dG*dG*dA*dG*d[5mC]*dA*dG*d[5mC]*eA*e[5mC]*e[5mC]*eA*eG) [compound 113137]			57%	43%
113157 (antisense eA*eG*e[5mC]*e[5mC]*e[5mC]*d[5mC]*d[5mC]*dT*dT*dA*dT*dT*dA*d[5mC]*dT*e[5mC]*eA*eT*eG*eG) [compound 113157]			13%	87%
113145 (antisense eT*eG*eT*eG*eG*dG*d[5mC]*dT*dT*dT*dT*dT*dG*dT*dG*eA*eT*eG*eG*eA) [compound 113145]			46%	54%
113152 (antisense eA*eA*eG*eA*eT*dG*dG*dT*d[5mC]*dA*dT*dA*dT*dT*dG*e[5mC]*eT*e[5mC]*eG*eT) [compound 113152]			89%	11%
113131 (antisense e[5mC]*eG*eT*eG*eT*dG*dT*d[5mC]*dT*dG*dT*dG*d[5mC]*dT*dA*eG*eT*e[5mC]*e[5mC]*e[5mC]) [compound 113131]			13%	87%
113133 (antisense eT*eA*eT*eT*eT*dG*d[5mC]*dG*dA*dG*d[5mC]*dT*d[5mC]*d[5mC]*d[5mC]*e[5mC]*eG*eT*eA*e[5mC]) [compound 113133]			214%	
113154 (antisense e[5mC]*eA*eG*e[5mC]*eT*dG*dT*dA*dA*dT*d[5mC]*d[5mC]*dA*dA*dG*eG*eA*eA*eT*eG) [compound 113154]			63%	37%
113135 (antisense eT*e[5mC]*e[5mC]*eA*eA*dA*dA*dA*dG*dA*dG*dA*d[5mC]*d[5mC]*dA*eG*eA*eT*eG*e[5mC]) [compound 113135]			66%	34%
113153 (antisense e[5mC]*eG*e[5mC]*eG*eT*d[5mC]*dT*dT*dG*dT*d[5mC]*dA*dG*dT*dT*eT*e[5mC]*e[5mC]*eA*eG) [compound 113153]			19%	81%
